The values that follow are results of earlier work, collected in patent publication US20240139186A1, “METHODS OF TREATING HIV” (Janssen Sciences Ireland Unlimited Company, priority 2019, published 2024).

Molecules are shown by their SMILES.

For the data set the following is noted: adult and pediatric participants receiving abacavir in clinical studies.

As to `Nc1nc(NC2CC2)c2ncn([C@H]3C=C[C@@H](CO)C3)c2n1` [abacavir], the “hypersensitivity reactions reported, proportion of participants” value is listed as “approximately 5%”.
